Values quoted from earlier work, collected in US10918602B2, “Compositions and methods for preparing polymeric films loaded with uniformly distributed drug particles” (New Jersey Institute of Technology, priority 2017, dated 2021).

Settings: literature examples

For `CN1C(=O)CN=C(c2ccccc2)c2cc(Cl)ccc21` [diazepam], the Diffusional exponent n is given as 0.82.

For `COc1ccc2c(c1)c(CC(=O)O)c(C)n2C(=O)c1ccc(Cl)cc1` [indomethacin], the Diffusional exponent n is listed as 0.9.
